The molecules below were run against T1, human Nav1.3 channels (Homo sapiens, UniProt Q9NY46) (assay: FRET assay, human Nav1.3 (EFS on FDSS)). Settings: HEK293 cells expressing human Nav1.3, read-out: IC50 against Nav1.3.
T1 construct: expressed in transfected cells; host or cells: HEK293
Assay type: cell-based
Protocol: The inhibitory activities of compounds against voltage gated sodium channels are determined by methodology well known in the art.
The ability of the aryl substituted carboxamide derivatives of the formula (I) to inhibit the NaV1.3, Nav1.7 and Nav1.5 channels is measured by Fluorescence Resonance Energy Transfer (FRET) assay and electrophysiology assay described below.
This screen is used to determine the effects of compounds on human Nav1.3, human Nav1.7, and human Nav1.5 channels, utilising electrical field stimulation (EFS) system in 96-well plate format on FDSS (Hamamatsu Photonics) platform. The change of membrane potential is monitored with FRET dye pair, oxonol (DiSBAC2(3)) and coumarin (CC2-DMPE).
Each HEK293 cells expressing human Nav1.3 channels and HEK293 cells expressing human Nav1.5 channels are grown in T225 flasks, in a 5% CO2 humidified incubator to about 80% confluence. Media composition consists of Dulbecco's Modified Eagle Medium (high glucose), 10% FCS, 100 units/mL Penicillin, 100 microgram/mL Streptomycin and 500 microgram/mL Geneticine.
Protocol: • Seed each cell lines (1×10^5 cells/well) into poly-D-lysine coated 96-well plates prior to experimentation. • Incubate at 37° C. in 5% CO2 for 24 hours. • Wash each well with assay buffer (140 mM NaCl, 4.5 mM KCl, 10 mM D-Glucose, 2 mM CaCl2, 1 mM MgCl2, 10 mM HEPES, pH 7.4 adjusted with NaOH) twice. • Add 1st loading solution containing 10 microM CC2-DMPE and 0.06% Pluronic F-127 in assay buffer. • Incubate the plate at room temperature in dark for 1 hour. • Remove 1st loading solution and added 2nd loading solution containing 15 microM DiSBAC2(3), 0.555 mM VABSC-1 and 0.004% Pluronic F-127 in assay buffer. • Place the plate under the dark at room temperature for 25 minutes. • Add compound solutions into the assay plate. • Set the assay plate in FDSS and placed an EFS device on the plate. • Measure EFS-induced fluorescent response by FDSS.
The data are analyzed and reported as normalized ratios of intensities measured at […]. The process of calculating these ratios is performed as follows:
This analysis is performed using a computerized specific program designed for FDSS generated data. Fluorescence ratio values are plotted using XLfit to determine an IC50 value for each compound.

T1 sequence (Q9NY46 whole entry): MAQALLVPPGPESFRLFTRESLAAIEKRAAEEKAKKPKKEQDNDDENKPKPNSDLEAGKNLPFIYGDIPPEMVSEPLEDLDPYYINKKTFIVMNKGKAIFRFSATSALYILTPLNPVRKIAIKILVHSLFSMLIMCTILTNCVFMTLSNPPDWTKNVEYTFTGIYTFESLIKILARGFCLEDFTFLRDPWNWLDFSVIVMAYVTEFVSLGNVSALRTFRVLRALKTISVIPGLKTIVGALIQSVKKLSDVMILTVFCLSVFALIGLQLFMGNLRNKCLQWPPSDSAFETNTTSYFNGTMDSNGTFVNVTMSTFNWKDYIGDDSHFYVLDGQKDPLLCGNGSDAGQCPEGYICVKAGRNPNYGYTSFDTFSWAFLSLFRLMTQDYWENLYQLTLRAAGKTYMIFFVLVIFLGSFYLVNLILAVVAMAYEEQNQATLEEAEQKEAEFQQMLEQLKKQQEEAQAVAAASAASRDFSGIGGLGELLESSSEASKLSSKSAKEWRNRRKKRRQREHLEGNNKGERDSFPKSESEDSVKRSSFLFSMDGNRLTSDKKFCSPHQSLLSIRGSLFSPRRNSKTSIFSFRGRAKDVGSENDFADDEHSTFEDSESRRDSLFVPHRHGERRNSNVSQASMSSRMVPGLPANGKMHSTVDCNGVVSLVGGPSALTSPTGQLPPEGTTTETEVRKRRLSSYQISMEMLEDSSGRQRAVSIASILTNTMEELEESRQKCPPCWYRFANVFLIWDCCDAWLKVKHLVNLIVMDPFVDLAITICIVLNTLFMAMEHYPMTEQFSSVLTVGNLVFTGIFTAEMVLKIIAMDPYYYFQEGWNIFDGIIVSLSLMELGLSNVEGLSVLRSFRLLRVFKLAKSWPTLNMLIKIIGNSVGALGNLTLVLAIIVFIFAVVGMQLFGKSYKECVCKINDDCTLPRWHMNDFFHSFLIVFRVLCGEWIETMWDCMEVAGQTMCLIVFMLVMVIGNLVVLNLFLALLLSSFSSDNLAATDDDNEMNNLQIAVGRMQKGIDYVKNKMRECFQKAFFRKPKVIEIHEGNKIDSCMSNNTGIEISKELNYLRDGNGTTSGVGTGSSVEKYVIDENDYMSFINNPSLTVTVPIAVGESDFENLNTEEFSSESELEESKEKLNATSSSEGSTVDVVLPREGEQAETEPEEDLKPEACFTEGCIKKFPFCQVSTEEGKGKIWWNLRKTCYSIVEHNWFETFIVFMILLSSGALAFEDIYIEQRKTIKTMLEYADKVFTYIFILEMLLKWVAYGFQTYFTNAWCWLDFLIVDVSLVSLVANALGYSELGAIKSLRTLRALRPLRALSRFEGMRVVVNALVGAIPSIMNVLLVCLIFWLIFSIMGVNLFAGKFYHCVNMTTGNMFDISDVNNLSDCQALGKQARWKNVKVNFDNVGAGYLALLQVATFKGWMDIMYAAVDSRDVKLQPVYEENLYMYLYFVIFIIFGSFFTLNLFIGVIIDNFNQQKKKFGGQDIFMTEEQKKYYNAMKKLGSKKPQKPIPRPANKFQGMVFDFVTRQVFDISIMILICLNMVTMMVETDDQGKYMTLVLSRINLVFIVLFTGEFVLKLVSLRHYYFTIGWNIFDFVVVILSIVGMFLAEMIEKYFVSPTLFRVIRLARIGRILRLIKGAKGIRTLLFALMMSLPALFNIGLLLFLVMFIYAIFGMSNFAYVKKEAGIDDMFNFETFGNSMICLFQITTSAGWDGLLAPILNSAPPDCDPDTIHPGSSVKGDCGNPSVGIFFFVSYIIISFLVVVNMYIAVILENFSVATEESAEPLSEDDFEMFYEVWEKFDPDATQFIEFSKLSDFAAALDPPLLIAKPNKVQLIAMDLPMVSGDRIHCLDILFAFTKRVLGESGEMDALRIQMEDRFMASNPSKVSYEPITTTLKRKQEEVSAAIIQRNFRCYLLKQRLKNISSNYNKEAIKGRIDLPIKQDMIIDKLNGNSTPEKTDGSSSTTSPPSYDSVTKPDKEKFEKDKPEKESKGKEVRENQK

IC50, < 1000 nM:
Cc1cc(C(=O)NCc2cccc(C(F)(F)F)c2)cc(NC(=O)CC2CC2)n1 [Example 961, 2-(2-cyclopropylacetamido)-6-methyl-N-(3-(trifluoromethyl)benzyl)isonicotinamide]
Cc1cc(C(=O)NCc2cnc(OCC(F)(F)F)cc2C)cc(NC(=O)CC2CC2)n1 [Example 958, 2-(2-cyclopropylacetamido)-6-methyl-N-((4-methyl-6-(2,2,2-trifluoroethoxy)pyridin-3-yl)methyl)isonicotinamide]
CCc1cc(CNC(=O)c2ccnc(NC(=O)C3CC3)c2)cnc1OCC(F)(F)F [Example 711, 2-(cyclopropanecarboxamido)-N-((5-ethyl-6-(2,2,2-trifluoroethoxy)pyridin-3-yl)methyl)isonicotinamide]
CC(=O)Nc1cc(C(=O)NCc2cccc(OC(F)(F)F)c2F)ccn1 [Example 746, 2-acetamido-N-(2-fluoro-3-(trifluoromethoxy)benzyl)isonicotinamide]
CCC(=O)Nc1cc(C(=O)NCc2cnc(OCC(F)F)c(C)c2)ccn1 [Example 738, N-((6-(2,2-difluoroethoxy)-5-methylpyridin-3-yl)methyl)-2-propionamidoisonicotinamide]
CCc1cc(CNC(=O)c2ccnc(NC(C)=O)c2)cnc1OCC(F)(F)F [Example 709, 2-acetamido-N-((5-ethyl-6-(2,2,2-trifluoroethoxy)pyridin-3-yl)methyl)isonicotinamide]
CCc1cc(CNC(=O)c2ccnc(NC(=O)C3CC3)n2)cnc1OCC(F)(F)F [Example 717, 2-(cyclopropanecarboxamido)-N-((5-ethyl-6-(2,2,2-trifluoroethoxy)pyridin-3-yl)methyl)pyrimidine-4-carboxamide]
Cc1cc(C(=O)NCc2cc(C(F)(F)F)ccc2F)cc(NC(=O)C(C)C)n1 [Example 575, N-(2-fluoro-5-(trifluoromethyl)benzyl)-2-isobutyramido-6-methylisonicotinamide]
CCC(=O)Nc1cc(C(=O)NCc2cccc(OC(F)(F)F)c2F)ccn1 [Example 747, N-(2-fluoro-3-(trifluoromethoxy)benzyl)-2-propionamidoisonicotinamide]
CCC(=O)Nc1cc(C(=O)NCc2cnc(OCC(F)F)c(C)c2)cc(C)n1 [Example 740, N-((6-(2,2-difluoroethoxy)-5-methylpyridin-3-yl)methyl)-2-methyl-6-propionamidoisonicotinamide]
O=C(NCc1ccc(COCC(F)(F)F)cc1)c1ccnc(NC(=O)C2CC2)c1 [Example 665, 2-(cyclopropanecarboxamido)-N-(4-((2,2,2-trifluoroethoxy)methyl)benzyl)isonicotinamide]
Cc1cc(C(=O)NCc2cnc(OCC(F)F)c(C)c2)cc(NC(=O)C(C)C)n1 [Example 743, N-((6-(2,2-difluoroethoxy)-5-methylpyridin-3-yl)methyl)-2-isobutyramido-6-methylisonicotinamide]
CC(C)C(=O)Nc1cc(C(=O)NC(C)c2ccc(OCC(F)(F)C(F)(F)F)nc2)ccn1 (single isomer, unassigned) [Example 690, 2-isobutyramido-N-(1-(6-(2,2,3,3,3-pentafluoropropoxy)pyridin-3-yl)ethyl)isonicotinamide]

These molecules were tested against T2, human Nav1.7 channels (Homo sapiens, UniProt Q15858) (assay: FRET assay, human Nav1.7 (EFS on FDSS)). Settings: CHO cells expressing human Nav1.7, read-out: IC50 against Nav1.7.
T2 construct: expressed in transfected cells; host or cells: CHO
T2 sequence (Q15858 whole entry): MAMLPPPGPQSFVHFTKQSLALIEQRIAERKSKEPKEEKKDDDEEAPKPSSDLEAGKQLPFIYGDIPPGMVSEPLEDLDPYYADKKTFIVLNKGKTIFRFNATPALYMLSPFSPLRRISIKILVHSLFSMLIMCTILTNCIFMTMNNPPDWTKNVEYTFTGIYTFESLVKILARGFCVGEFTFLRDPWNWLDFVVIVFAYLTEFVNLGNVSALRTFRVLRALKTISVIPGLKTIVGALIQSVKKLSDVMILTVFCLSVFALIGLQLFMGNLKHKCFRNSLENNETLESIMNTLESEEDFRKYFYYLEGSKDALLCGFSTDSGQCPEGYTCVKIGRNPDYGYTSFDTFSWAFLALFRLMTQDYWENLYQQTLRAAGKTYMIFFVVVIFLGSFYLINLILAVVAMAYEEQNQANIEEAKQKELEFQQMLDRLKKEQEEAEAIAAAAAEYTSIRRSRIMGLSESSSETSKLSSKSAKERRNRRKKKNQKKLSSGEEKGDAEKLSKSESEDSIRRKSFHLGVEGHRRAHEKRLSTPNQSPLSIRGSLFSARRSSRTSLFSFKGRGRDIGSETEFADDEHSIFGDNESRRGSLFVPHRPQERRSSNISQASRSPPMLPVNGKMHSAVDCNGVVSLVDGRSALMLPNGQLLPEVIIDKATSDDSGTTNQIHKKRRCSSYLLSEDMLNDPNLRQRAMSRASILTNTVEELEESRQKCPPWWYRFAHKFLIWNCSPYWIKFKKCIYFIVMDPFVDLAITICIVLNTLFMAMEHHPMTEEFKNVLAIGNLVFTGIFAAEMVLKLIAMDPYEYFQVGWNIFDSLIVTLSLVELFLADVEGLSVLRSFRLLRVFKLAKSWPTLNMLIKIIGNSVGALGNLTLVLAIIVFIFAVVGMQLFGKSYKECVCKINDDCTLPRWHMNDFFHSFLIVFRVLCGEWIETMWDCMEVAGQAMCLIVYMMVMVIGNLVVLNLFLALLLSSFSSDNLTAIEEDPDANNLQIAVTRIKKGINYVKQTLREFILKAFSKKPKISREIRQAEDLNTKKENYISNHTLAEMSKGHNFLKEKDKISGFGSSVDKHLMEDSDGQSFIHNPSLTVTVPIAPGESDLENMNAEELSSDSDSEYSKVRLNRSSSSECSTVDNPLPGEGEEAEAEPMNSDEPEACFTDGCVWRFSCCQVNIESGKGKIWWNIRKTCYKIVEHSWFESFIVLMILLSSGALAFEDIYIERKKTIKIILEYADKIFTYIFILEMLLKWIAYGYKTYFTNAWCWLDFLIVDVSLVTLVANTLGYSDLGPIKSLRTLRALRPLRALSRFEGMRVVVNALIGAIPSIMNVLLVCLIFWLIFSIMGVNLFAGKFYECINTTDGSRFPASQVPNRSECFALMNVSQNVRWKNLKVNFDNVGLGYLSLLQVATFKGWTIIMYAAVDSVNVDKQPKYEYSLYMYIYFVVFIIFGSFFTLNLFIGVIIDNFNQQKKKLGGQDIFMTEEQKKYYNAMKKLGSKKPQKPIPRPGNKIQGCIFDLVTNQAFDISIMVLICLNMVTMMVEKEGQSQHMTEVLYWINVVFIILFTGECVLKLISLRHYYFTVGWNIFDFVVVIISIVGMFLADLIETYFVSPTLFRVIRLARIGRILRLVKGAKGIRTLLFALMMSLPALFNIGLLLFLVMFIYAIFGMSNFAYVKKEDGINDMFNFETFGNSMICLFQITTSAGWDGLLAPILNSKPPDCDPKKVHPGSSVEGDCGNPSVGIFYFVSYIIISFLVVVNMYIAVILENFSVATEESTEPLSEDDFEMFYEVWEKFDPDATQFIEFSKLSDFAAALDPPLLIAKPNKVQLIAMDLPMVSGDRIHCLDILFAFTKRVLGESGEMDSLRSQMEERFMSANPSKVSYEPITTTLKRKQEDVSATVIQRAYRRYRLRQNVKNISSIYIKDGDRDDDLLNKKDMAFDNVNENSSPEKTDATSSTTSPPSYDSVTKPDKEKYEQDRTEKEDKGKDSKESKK
Assay type: cell-based
Summary of the method: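 CHO cells stably expressing the channel, loaded with CC2-DMPE (10 µM) then DiSBAC2(3) (15 µM) plus VABSC-1, in HEPES-buffered saline pH 7.4 at room temperature. Electrical field stimulation on FDSS; FRET ratio at 440 nm fitted for IC50.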

IC50, < 1000 nM:
Cc1cc(C(=O)NCc2ccc(OCC(F)F)cc2C)cc(NC(=O)C(C)C)n1 [Example 1008, N-(4-(2,2-difluoroethoxy)-2-methylbenzyl)-2-isobutyramido-6-methylisonicotinamide]
CC(C)C(=O)Nc1cc(C(=O)NCc2ccc(O[C@H](C)C(F)(F)F)nc2)ccn1 (single isomer, unassigned) [Example 319]
Cc1cc(C(C)NC(=O)c2ccnc(NC(=O)C(C)C)c2)cnc1OCC(F)(F)F (single isomer, unassigned) [Example 378, 2-isobutyramido-N-(1-(5-methyl-6-(2,2,2-trifluoroethoxy)pyridin-3-yl)ethyl)isonicotinamide]

Reference: patent publication US9302991B2, “Arylamide derivatives as TTX-S blockers” (RaQualia Pharma Inc., priority 2010, dated 2016)
